Assay results: publication PMC7321408, “One-Pot Multicomponent Synthesis and Bioevaluation of Tetrahydroquinoline Derivatives as Potential Antioxidants, α-Amylase Enzyme Inhibitors, Anti-Cancerous and Anti-Inflammatory Agents” (Molecules, 2020)
Converted amounts (≈) assume the structure as drawn. “And” between values parts separate entries of the source, which are not always exact repeats. Identical values can stand only once. Like-named read-outs stand apart in the source and are kept apart here. Values belong to the compound of their own block, whether it stands above or below them.

Experiments:
[1] = MTT cytotoxicity against raw macrophages; type: cell-based, albino rats; details: albino, rat; for viability at 24 h, 1 µM / viability at 24 h, 10 µM / viability at 24 h, 50 µM / viability at 24 h, 100 µM: peritoneal macrophages (raw macrophages), raw macrophages, MTT, read-out: % Cell Viability; for IC50 at 24 h: primary peritoneal macrophages, mean ± SEM, n = 3
Experimental: The % cell viability of the synthetic library was evaluated in vitro by measuring the mitochondrial dehydrogenase activity (MTT test) on raw macrophages.
The cytotoxic potential was assessed by using an MTT 3-(4,5-dimethyl thiazole-2-yl)-2,5- diphenyl tetrazolium bromide assay. Briefly, macrophages were extracted from the peritoneal cavity of albino rats and plated at a density of 1 × 10^6 per well in a 96-well plate and incubated in a 5% CO2 incubator at 37 °C for 24 h. The cells were treated with various concentrations of the test compounds (100 µM, 50 µM, 10 µM and 1 µM) or vehicle alone. The test compounds were first dissolved in DMSO to make a 100 mM stock solution and then further dilutions were made from this stock solution. After 24 h of incubation, 20 µL of MTT (1 mg/mL in normal saline) was added into each well and incubated under the same conditions for 2 h. Mitochondrial succinate dehydrogenase converted MTT in live cells into purple formazan crystals. The formazan crystals were then solubilized in 100 µL DMSO, and the absorbance was measured at 570 nm. The % cell viability was calculated by the following formula; % cell viability = (abssample − absblank)/(abscontrol − absblank) × 100

[2] = test system: Hep-2C cells; experiment: MTT assay against Hep-2C cells; type: cell-based, Human; details: Homo sapiens, Hep2C, read-out: IC50 (Mean ± SEM) Hep-2C Cells
Experimental: Hep-2C cell line experiments were performed in the Immunology Lab of the National Institute of Health (NIH), Islamabad, Pakistan. Human cervix carcinoma cells Hep-2C (ATCC HB-8065) were cultured in Dulbecco’s modified Eagle’s medium (DMEM), comprising 10% fetal calf serum (10% FCS) and supplemented with 2 mM L-glutamine, 100 U/mL penicillin, 100 µg/mL streptomycin and 1 mM Na pyruvate, at 37 °C in a humidified 5% CO2 incubator.
The tetrazolium dye 3-(4, 5-dimethyl thiazolyl-2)-2, 5-diphenyltetrazolium bromide (MTT) was used to assess the cytotoxic potential of the test compounds. In living cells, MTT is reduced into its insoluble purple product formazan, which is measured spectrophotometrically.
Hep-2C cells, in a density of 1 × 10^6 (> 90% cell viability), were cultured in a 96-well plate and treated with different concentrations of the test compounds for 24, 48 and 72 h. Ten microliters of MTT (1 mg per mL) were added per well followed by incubation for 4 h. Insoluble formazan crystals were dissolved by adding 100 µL of DMSO. Cells were then incubated for another 2 h. Absorbance was measured at 570 nm by a microplate reader. Untreated Hep-2C cells were taken as controls and DMSO as a negative. % cell viability = (abssample − absblank)/(abscontrol − absblank) × 100

[3] = test system: brine shrimp nauplii; experiment: Brine shrimp lethality bioassay; type: in vivo; details: 24 h, n = 3
Experimental: Brine shrimp eggs were hatched in a shallow rectangular plastic dish and filled with artificial seawater, which was prepared with a commercial salt mixture. In a 96-well plate, 150 µL of artificial seawater was added and 10 nauplii were added into this. Test compounds (400, 200, 100 and 50 µg/mL) were added into each well and the final volume was made up by adding the artificial seawater. The well plate was left uncovered under a lamp. The number of surviving shrimps were counted and recorded after 24 h. The test was repeated in triplicate. […] The percentage mortality (%M) was also calculated by dividing the number of dead nauplii by the total number and then multiplied by 100.

[4] = DPPH free radical scavenging assay; details: mean ± SEM, n = 3; for IC50 (DPPH radical scavenging): concentration to scavenge 50% of the DPPH radicals
Experimental: The % free radical scavenging activity (%FRSA) of the synthetic compounds was evaluated by the discoloration of an unstable DPPH reagent to the stable yellow-colored 2,2-diphenyl-1-picrylhydrazine molecule by accepting one electron from a donor antioxidant; the mechanism is shown in Scheme 2.
The % FRSA (free radical scavenging activity) of the synthetic compounds was determined by using the method of Tai et al. with slight modifications. The antioxidant potential was determined by detecting the capacity of the synthetic compounds to quench the DPPH free radicals. The synthetic compounds were taken in a 96-well plate at three-fold concentrations of 200 µg/mL, 66.6 µg/mL, 22.2 µg/mL and 7.4 µg/mL. DPPH free radicals were added to entire wells to make up the volume up to 200 µL. DMSO and ascorbic acid were taken as negative and positive controls, respectively. The absorbance was taken at 630nm using a microplate reader (ELx800 BioTek). The percentage of scavenging activity was calculated by the given formula:% scavenging activity = (1 − Abs/Abc) × 100
Abs = sample’s absorbance; Abc = control’s absorbance.

[5] = test system: NO generated by LPS-induced macrophages; experiment: Nitric oxide assay (Griess) in LPS-induced macrophages; type: cell-based, murine; details: Mus musculus, Macrophage, 18 h, LPS 1 µg/mL, read-out: % NO Production (Mean ± SEM)
Experimental: A Griess reagent, a spectrophotometric determination of nitrite level, was carried out to measure the nitrite level in the conditioned medium of macrophages treated with lipopolysaccharide (LPS). Sodium nitrite (NaNO2) was used as a standard compound for the standard curve (Figure 8). The NO concentrations were obtained using the standard curve equation: y = 0.0083x + 0.0017, R^2 = 0.9999, where y is the absorbance at 540 nm and x is the NO concentration in µM. The inhibitory activity of the tested compounds towards NO generated by LPS-induced macrophages was obtained from the calculated value of x.
The anti-inflammatory effect of the synthesized compounds in murine macrophages was evaluated by using the Griess reaction method, described previously. In brief, 1 × 10^6 were plated in a 96-well plate and incubated in a 5% CO2 incubator at 37 °C for 24 h, pre-treated with different concentrations (100 µM, 50 µM, 10 µM and 1 µM) of synthetic compounds for another 2 h and challenged with LPS (1 µg/mL) for an additional 18 h. Equal volumes of Griess reagent (1% sulphanilamide in 50% phosphoric acid and 0.1% naphthyl ethylenediamine dihydrochloride in distilled water and vortexed) and culture medium were mixed and the absorbance was taken at 540 nm. Lipopolysaccharide (LPS) was taken as a blank and piroxicam was taken as a positive control. A t-test was applied to determine the significance of the results.

[6] = target: α-amylase enzyme; experiment: α-Amylase enzyme inhibitory assay; type: biochemical
Experimental: An in vitro α-amylase enzyme inhibitory assay was performed by the standard protocol. Four milligrams per 1 mL of sample was prepared in DMSO. In each well of a 96-well plate, synthetic compounds were added to a final concentration of 200 µg/mL. To this, 15 μL phosphate buffer, […] α-amylase enzyme and 40 μL starch solution were added stepwise. The microplate was incubated at 50 °C for 30 min. […] The formula used to calculate the percent enzyme inhibition is:% Enzyme inhibition = [(As − An) ÷ (Ab − An] × 100
As = sample’s absorbance; An = negative’s absorbance; Ab = blank’s absorbance

[7] = Phosphomolybdenum-based total antioxidant capacity (TAC)
Experimental: In the presence of an antioxidant, the phosphomolybdate ion gets reduced and a green phosphate–molybdate complex is formed, which is analyzed spectrophotometrically.
The total antioxidant capacity was determined by using the phosphomolybdenum-based method. The method is based on the reduction of Mo (VI) to Mo (V), leading to the formation of a green-colored phosphate–molybdenum complex that gives absorption at 630 nm. In 96-well plates, 20 µL of the sample was added with 180 µL TAC reagents in it and incubated at 95 °C for 90 min in a water bath and cooled at room temperature. The results were calculated as µg AAE/mg.

IC50 (DPPH radical scavenging) [4]: 29.19 ± 0.25 mg/L (≈ 107 µM) | IC50 (α-amylase) [6]: 27.39 ± 1.43 mg/L (≈ 100 µM)
SMILES: Clc1cccc(NCN2CCCc3ccccc32)c1 [SF8, 3-Chloro-N-((3,4-dihydroquinolin-1(2H)-yl)methyl) aniline]
viability at 24 h, 1 µM [1]: 97 ± 1.04% | viability at 24 h, 10 µM [1]: 83 ± 0.78% | viability at 24 h, 50 µM [1]: 68 ± 0.79% | viability at 24 h, 100 µM [1]: 52 ± 1% | IC50 at 24 h [1]: 21.2 ± 0.33 µM | IC50 ([2]; 24 h): 20.2 ± 1.07 µM | IC50 ([2]; 48 h): 15.7 ± 1.08 µM | IC50 ([2]; 72 h): 11.9 ± 1.04 µM | LD50 ± SEM (brine shrimp lethality) [3]: 123.4 ± 1.87 µg/mL | % DPPH Scavenging Activity ([4]; 7.4 µg/mL): 27.98 ± 0.24% | % DPPH Scavenging Activity ([4]; 22.22 µg/mL): 50.17 ± 0.32% | % DPPH Scavenging Activity ([4]; 66.66 µg/mL): 52.12 ± 0.36% | % DPPH Scavenging Activity ([4]; 200 µg/mL): 62.35 ± 0.14% | activity at 1 µM [5]: 39.4 ± 0.48% | activity at 10 µM [5]: 29.4 ± 0.44% | activity at 50 µM [5]: 24.1 ± 0.41% | activity at 100 µM [5]: 15 ± 0.33%

IC50 (DPPH radical scavenging) [4]: 50.76 ± 0.37 mg/L (≈ 160 µM) | IC50 (α-amylase) [6]: 18.55 ± 0.89 mg/L (≈ 58.5 µM) | % inhibition of α-amylase enzyme ([6]; 200 µg/mL): 89.93% and 93%
SMILES: Brc1ccc(NCN2CCCc3ccccc32)cc1 [SF9, 4-Bromo-N-((3,4-dihydroquinolin-1(2H)-yl)methyl) aniline]
viability at 24 h, 1 µM [1]: 98 ± 0.87% | viability at 24 h, 10 µM [1]: 91 ± 0.91% | viability at 24 h, 50 µM [1]: 84 ± 1.21% | viability at 24 h, 100 µM [1]: 82 ± 0.96% | IC50 at 24 h [1]: 14.2 ± 0.26 µM | LD50 ± SEM (brine shrimp lethality) [3]: 139 ± 0.87 µg/mL | % DPPH Scavenging Activity ([4]; 7.4 µg/mL): 7.64 ± 0.26% | % DPPH Scavenging Activity ([4]; 22.22 µg/mL): 19.35 ± 0.11% | % DPPH Scavenging Activity ([4]; 66.66 µg/mL): 50.28 ± 0.22% | % DPPH Scavenging Activity ([4]; 200 µg/mL): 67.46 ± 0.14% | Total antioxidant capacity (TAC) [7]: 179.76 ± 1.6231 µg/AAE | activity at 1 µM [5]: 66.97 ± 0.61% | activity at 10 µM [5]: 58.54 ± 0.55% | activity at 50 µM [5]: 55.6 ± 0.51% | activity at 100 µM [5]: 49.07 ± 0.45%
